Measured values as given in DBAASP.
In brackets after ≈: the same amount, converted by molar mass. Each block holds one molecule with its values, some of them ahead of it.

Key:
Experiment in all cases: ≥ marks a high value that may be exact or a test limit, other limits are often not marked, values filed in µg/mL are converted to µM
[1] = system: Staphylococcus aureus VISA3
[2] = system: Enterococcus faecalis ATCC 29212
[3] = system: Pseudomonas aeruginosa ATCC 27853
[4] = system: Staphylococcus aureus VRSA1
[5] = system: Staphylococcus aureus VRSA2
[6] = system: Candida albicans ATCC 24433
[7] = system: Micrococcus luteus ATCC 10240
[8] = system: Staphylococcus epidermidis ATCC 12228
[9] = system: Klebsiella pneumoniae NCIMB 9111
[10] = system: Staphylococcus aureus ATCC 25923
[11] = system: Candida albicans ATCC 10259
[12] = system: Enterococcus faecium BCRC 15B0132
[13] = system: Staphylococcus aureus VISA1
[14] = system: Staphylococcus aureus ATCC 29213
[15] = system: Pasteurella multocida ATCC 6529
[16] = system: Salmonella enterica subsp. enterica serovar Choleraesuis CVCC 2140
Escherichia coli BL21 = system: Escherichia coli BL21
[17] = system: Bacillus cereus ATCC 9193
Escherichia coli UB1005 = system: Escherichia coli UB1005
[18] = system: Pseudomonas aeruginosa K799
[19] = system: Pseudomonas aeruginosa H744
[20] = system: Staphylococcus epidermidis
Escherichia coli KF130 = system: Escherichia coli KF130
Escherichia coli KF111 = system: Escherichia coli KF111
[21] = system: Pseudomonas aeruginosa H374
[22] = system: Salmonella enterica subsp. enterica serovar Typhimurium ATCC 14028s
[23] = system: Salmonella enterica subsp. enterica serovar Typhimurium ATCC 14028
[24] = system: Bacillus subtilis KCTC 1021
[25] = system: Pseudomonas aeruginosa ATCC 9027
Serratia marcescens = system: Serratia marcescens
Saccharomyces cerevisiae = system: Saccharomyces cerevisiae
[26] = system: Proteus mirabilis ATCC 25933
[27] = system: Shigella dysenteriae ATCC 9752
[28] = system: Micrococcus luteus ATCC 4698
Escherichia coli = system: Escherichia coli
Candida albicans = system: Candida albicans
[29] = system: Klebsiella pneumoniae ATCC 10031
Pseudomonas putida = system: Pseudomonas putida

MIC [1]: ≥ 40.9 µM
MIC [2]: 10.2 µM (≈ 16.4 µg/mL)
MIC [3]: 320 µM (≈ 513 µg/mL)
MIC [4]: ≥ 40.9 µM
MIC [5]: ≥ 40.9 µM
MIC [6]: ≥ 47.9 µM
MIC [7]: ≥ 47.9 µM
MIC [8]: 20.8 µM (≈ 33.4 µg/mL)
MIC [9]: ≥ 320 µM
MIC [10]: 20.8 µM (≈ 33.4 µg/mL)
MIC [11]: ≥ 47.9 µM
MIC [12]: ≥ 40.9 µM
MIC [13]: ≥ 40.9 µM
Structure (SMILES): CC(=O)N[C@@H](C)C(=O)N[C@@H](CCCCN)C(=O)N[C@@H](CCCN=C(N)N)C(=O)N[C@@H](Cc1cnc[nH]1)C(=O)N[C@@H](Cc1cnc[nH]1)C(=O)NCC(=O)N[C@@H](Cc1ccc(O)cc1)C(=O)N[C@@H](CCCCN)C(=O)N[C@@H](CCCN=C(N)N)C(=O)N[C@@H](CCCCN)C(=O)N[C@@H](Cc1ccccc1)C(=O)N[C@@H](Cc1cnc[nH]1)C(N)=O [AKRHHGYKRKFH]

MIC [14]: 3.66 µM
MIC [15]: 14.4 µM
MIC (Escherichia coli BL21): ≥ 57.4 µM
MIC [17]: 0.97 µM
Structure (SMILES): CC(C)C[C@@H]1NC(=O)CNC(=O)CNC(=O)[C@H](Cc2cnc[nH]2)NC(=O)[C@@H]2CSSC[C@@H]3NC(=O)[C@H](Cc4ccccc4)NC(=O)[C@H](CC(N)=O)NC(=O)CNC(=O)[C@H](CCC(N)=O)NC(=O)[C@H](CO)NC(=O)[C@H](CCCN=C(N)N)NC(=O)[C@@H](NC(=O)[C@H](C)NC(=O)[C@H](C)NC(=O)[C@@H](NC(=O)[C@H](CC(=O)O)NC(=O)[C@H](C)NC(=O)[C@H](Cc4ccccc4)NC(=O)[C@@H]4CCCN4C(=O)[C@H](C)NC(=O)[C@H](CC(=O)O)NC(=O)[C@H](C)NC(=O)[C@H](CO)NC(=O)CNC(=O)[C@@H]4CCCN4C(=O)[C@H](C)NC(=O)[C@H](C)NC(=O)[C@H](CCC(N)=O)NC(=O)[C@H](Cc4ccccc4)NC(=O)[C@H](CC(C)C)NC(=O)[C@H](Cc4ccccc4)NC(=O)[C@H](CC(C)C)NC(=O)[C@H](CC(C)C)NC(=O)[C@@H](N)C(C)C)[C@@H](C)O)CSSC[C@H](NC(=O)[C@H](CC(N)=O)NC(=O)[C@H](CC(C)C)NC1=O)C(=O)N[C@H](C(=O)N[C@@H](C)C(=O)N[C@@H](CCCCN)C(=O)O)CSSC[C@H](NC(=O)[C@H](C)NC(=O)CNC(=O)[C@H](C)NC(=O)[C@H](CCCN=C(N)N)NC3=O)C(=O)N1CCC[C@H]1C(=O)N1CCC[C@H]1C(=O)N[C@@H]([C@@H](C)O)C(=O)N[C@@H](Cc1ccccc1)C(=O)N[C@@H](C)C(=O)N[C@@H](C)C(=O)N[C@@H](CO)C(=O)NCC(=O)N[C@@H](CO)C(=O)N2 [VLLFLFQAAPGSADAPFADTAACRSQGNFCRAGACPPTFAASGSCHGGLLNCCAK]
MIC [16]: ≥ 73.2 µM

MIC (Escherichia coli UB1005): 0.334 µM (≈ 1 µg/mL)
MIC [18]: 10.7 µM (≈ 32 µg/mL)
MIC [19]: 5.34 µM (≈ 16 µg/mL)
MIC [20]: 21.3 µM (≈ 64 µg/mL)
MIC (Escherichia coli KF130): 0.667 µM (≈ 2 µg/mL)
MIC (Escherichia coli KF111): 0.667 µM (≈ 2 µg/mL)
MIC [21]: 5.34 µM (≈ 16 µg/mL)
MIC [22]: 5.34 µM (≈ 16 µg/mL)
Structure (SMILES): CC[C@H](C)[C@H](NC(=O)[C@@H]1CCCN1C(=O)[C@H](CCCCN)NC(=O)[C@H](CC(C)C)NC(=O)[C@H](C)NC(=O)[C@@H](NC(=O)[C@H](Cc1ccc(O)cc1)NC(=O)[C@H](CC(C)C)NC(=O)[C@@H](NC(=O)[C@@H](NC(=O)[C@H](CCCN=C(N)N)NC(=O)[C@H](C)NC(=O)[C@@H]1CCCN1C(=O)[C@H](CO)NC(=O)[C@H](CCCCN)NC(=O)[C@H](Cc1ccccc1)NC(=O)[C@@H](NC(=O)[C@H](CCCCN)NC(=O)[C@H](CC(C)C)NC(=O)[C@H](Cc1ccccc1)NC(=O)[C@H](CO)NC(=O)[C@H](CCCCN)NC(=O)[C@H](Cc1c[nH]c2ccccc12)NC(=O)[C@@H](N)CCCCN)[C@@H](C)O)[C@@H](C)O)C(C)C)[C@@H](C)O)C(=O)N[C@@H](CO)C(=O)N[C@@H](CO)C(=O)O [KWKSFLKTFKSPARTVLYTALKPISS]

MIC [23]: 45.3 µM (≈ 150 µg/mL)
MIC [24]: 3.02 µM (≈ 9.99 µg/mL)
MIC [25]: 15.1 µM (≈ 50 µg/mL)
MIC (Serratia marcescens): ≥ 60.4 µM
MIC (Saccharomyces cerevisiae): ≥ 60.4 µM
MIC [26]: ≥ 60.4 µM
MIC [8]: 3.02 µM (≈ 9.99 µg/mL)
MIC [27]: 7.56 µM (≈ 25 µg/mL)
MIC [28]: 0.755 µM (≈ 2.5 µg/mL)
MIC (Escherichia coli): 22.7 µM (≈ 75 µg/mL)
MIC (Candida albicans): > 60.4 µM
MIC [29]: 7.56 µM (≈ 25 µg/mL)
MIC (Pseudomonas putida): 15.1 µM (≈ 50 µg/mL)
Structure (SMILES): CC[C@H](C)[C@H](NC(=O)CN)C(=O)N[C@@H](CCSC)C(=O)N[C@@H](CO)C(=O)N[C@H](C(=O)N[C@H](C(=O)N[C@@H](CCCCN)C(=O)N[C@@H](CC(=O)O)C(=O)N[C@H](C(=O)N[C@@H](C)C(=O)N[C@@H](CCCCN)C(=O)N[C@H](C(=O)N[C@@H](C)C(=O)N[C@@H](C)C(=O)N[C@@H](CCCCN)C(=O)N[C@@H](CCC(=O)O)C(=O)N[C@@H](C)C(=O)N[C@@H](C)C(=O)N[C@@H](CCCCN)C(=O)NCC(=O)N[C@@H](C)C(=O)N[C@@H](CC(C)C)C(=O)N[C@@H](CO)C(=O)N[C@H](C(=O)N[C@@H](CC(C)C)C(=O)N[C@@H](CO)C(=O)N[C@H]1CSSC[C@@H](C(=O)O)NC(=O)[C@H]([C@@H](C)O)NC(=O)[C@H](CCCCN)NC(=O)[C@H](C)NC(=O)[C@H](CC(C)C)NC(=O)[C@H](CCCCN)NC1=O)[C@@H](C)O)[C@@H](C)O)C(C)C)C(C)C)[C@@H](C)CC [GIMSIVKDVAKTAAKEAAKGALSTLSCKLAKTC]
